Where “and” joins values, the source holds several entries; their conditions need not be identical. Equal entries are not always repeated. Where two headings read alike, the source gives them in different places.
Key:
[1] = target: T1, SARS-CoV-2 NSP3 Mac1 (Severe acute respiratory syndrome coronavirus 2, UniProt P0DTD1); format: binding; conditions: for Refined occupancy: ligand occupancy after refinement (phenix.refine); for HIT*: true hit = binding in crystallographic soaking or the HTRF-based binding assay
[2] = target: T1, SARS-CoV-2 NSP3 Mac1; format: binding; parameters: contains a conserved macrodomain enzyme (Mac1); conditions: for Spearman est (compound concentration vs apparent Tm): DSF dose responsiveness, 1 µM nsp3 mac1, adj p given; for DSF max dTma: maximal thermal upshift
Method: DSF and associated compound handling was performed as described ([12]), with 5 µM dye “Fluorescent Yellow” (Jacquard iDye Cat #JID1405) used in place of SYPRO Orange. Compounds were tested in triplicate, at seven concentrations in two-fold serial dilutions, at a top concentration of either 1,000 or 100 μM. To minimize experimental noise arising from plate location-based effects on Tma, all concentrations and replicates for each compound were tested within a single region of the microtiter plates, including a DMSO-only control from which ΔTmas were calculated for that compound. […] For each compound, to determine statistical significance of the dose responsive thermal shift, the Spearman’s coefficient was calculated between compound concentration and ΔTma.

[3] = PanDDA 1-BDC value of the event, crystal soak, compound concentration 100 mM, per dataset
[4] = PanDDA event map, 1 minus background density correction, crystal soaking of Mac1
[5] = crystal soak, compound concentration 100 mM, per dataset
[6] = ligand modeled in the crystal structure, crystal soak, compound concentration 100 mM, per dataset
[7] = ligand modeled from this dataset, compound concentration 100 mM

SMILES	Spearman est (compound concentration vs apparent Tm) [2]	DSF max dTma [2]	other results
Cc1nnc2n1CC(C(=O)O)N(C(=O)c1ccc(NC(=O)NC3CC3)cc1)C2 (stereo not drawn) [8539_0037]	0.16	2.36 ˚C	1-BDC [1, 3]: 0.4; 1-BDC [1, 4]: 0.4; PanDDA hit? [1, 5]: TRUE; Modeled? [1, 6]: TRUE; Refined occupancy ([1]; crystal soaking of Mac1): 80; HIT* [1]: Y
O=C(Nc1ccc(C(=O)N2CC(C(=O)O)Cc3ccccc32)cc1)NC1CC1 (stereo not drawn) [8539_0038]	0.19	0.98 ˚C	1-BDC [1, 3]: 0.06; 1-BDC [1, 4]: 0.06; PanDDA hit? [1, 5]: TRUE; Modeled? [1, 6]: TRUE; Refined occupancy ([1]; crystal soaking of Mac1): 12; HIT* [1]: Y
Cn1nc(O)c2c1CN(C(=O)c1cc(O)cc(=O)o1)CC2 [FRESH00002410346]	−0.34	0.09 ˚C	1-BDC [1, 3]: 0.07; 1-BDC [1, 4]: 0.07; PanDDA hit? [1, 5]: TRUE; Modeled? [1, 6]: TRUE; Refined occupancy ([1]; crystal soaking of Mac1): 14; HIT* [1]: Y
Cc1cc(S(=O)(=O)Nc2cnc3[nH]ccc3c2)n(C2CCCC2)n1 [FRESH00010608284]	−0.51	0.06 ˚C	1-BDC [1, 4]: 0.15; Refined occupancy ([1]; crystal soaking of Mac1): 30; HIT* [1]: Y
CC1(C)CCC(C(=O)O)CN1C(=O)c1ncnc2[nH]ccc12 (stereo not drawn) [FRESH00012962804]	0.54	0.62 ˚C	1-BDC ([1]; PanDDA event map, 1-BDC of the hit dataset, crystal soak, compound concentration 100 mM, listed as F2804): 0.32 and 0.28; 1-BDC [1, 4]: 0.22; Refined occupancy ([1]; crystal soaking of Mac1): 44; HIT* [1]: Y
CC1(C(=O)O)CCN(C(=O)Cc2c[nH]c3nccc(Cl)c23)C1 (stereo not drawn) [FRESH00014134848]	0.41	0.07 ˚C	1-BDC [1, 4]: 0.11; Refined occupancy ([1]; crystal soaking of Mac1): 22; HIT* [1]: Y
CNS(=O)(=O)c1cc(C(=O)N2CCc3nc(N)ncc3C2)co1 [FRESH00014649046]	0.3	0.29 ˚C	1-BDC [1, 3]: 0.07; 1-BDC (PanDDA) [1, 4]: 0.06; PanDDA hit? [1, 5]: TRUE; Modeled? [1, 7]: TRUE; Refined occupancy ([1]; crystal soaking of Mac1): 12; HIT* [1]: Y
O=c1nc(N2CC(Cn3cnnc3)C3(CCC3)C2)cc(Cl)[nH]1 (stereo not drawn) [FRESH00020289192]	−0.17	0.04 ˚C	1-BDC [1, 4]: 0.08; Refined occupancy ([1]; crystal soaking of Mac1): 16; HIT* [1]: Y
O=C(O)[C@@H]1CCCN(C(=O)c2ccnc3[nH]ccc23)C1 [REAL250000548538]	0.27	0.25 ˚C	1-BDC [1, 4]: 0.08; Modeled? [1, 7]: TRUE; Refined occupancy ([1]; crystal soaking of Mac1): 16; HIT* [1]: Y
O=C(c1cn[nH]c(=O)c1)N1CCC(CF)(C(=O)O)C1 (stereo not drawn) [REAL250001448407]	−0.24	0 ˚C	1-BDC [1, 4]: 0.12; Refined occupancy ([1]; crystal soaking of Mac1): 24; HIT* [1]: Y
CN(CCCC(=O)O)C(=O)c1ncnc2[nH]ccc12 [REAL250002155324]	−0.27	0.12 ˚C	1-BDC [1, 4]: 0.12; Refined occupancy ([1]; crystal soaking of Mac1): 24; HIT* [1]: Y
O=C(Cc1ccc2c(c1)CCO2)OCc1cc2ccccc2[nH]c1=O [ZINC000733430132]	−0.12	–	–
Cc1cc(-n2cncn2)ccc1C(=O)OCC1OCCc2ccccc21 (stereo not drawn) [ZINC000745413896]	0.55	–	–
CCc1noc(C(C)OC(=O)c2cccc3[nH]c(=O)oc23)n1 (stereo not drawn) [ZINC000751938095]	−0.41	0.13 ˚C	–
Cc1ccc(CC(=O)OCc2noc(C3CC3)n2)cc1O [ZINC000772152995]	0.02	–	–
O=C(COC(=O)c1ccc2nsnc2c1)c1ccccc1 [ZINC000779122380]	0.81	–	–
N#Cc1cccc(-n2ccc(C(=O)OCc3cccnc3)n2)c1 [ZINC000798346395]	0.61	–	–
Nc1cc(-c2noc(CCn3cccn3)n2)ncn1 [ZINC000820965086]	0.58	–	–
O=C(Cc1ccc(-n2cccn2)cc1)OCC1CCCNC1=O (stereo not drawn) [ZINC000835985505]	−0.14	–	–
CS(=O)(=O)C1CCCN(c2ncnc3[nH]c(Cl)cc23)C1 (stereo not drawn) [ZINC000865679550]	0.71	–	–
Clc1cc2c(N3CCCC(c4cccnc4)C3)ncnc2[nH]1 (stereo not drawn) [ZINC000866018680]	0.2	–	–
CC1CCc2n[nH]cc2C1C(=O)N(C)OCc1ccccc1 (stereo not drawn) [ZINC000879258074]	0.45	–	–
Cc1csc(=Nc2ccccc2)n1Cc1nnc2n1CCNC2=O [ZINC000881775356]	0.59	–	–
CN(Cc1nnc2c(=O)[nH]ccn12)c1nccc(C(F)(F)F)n1 [ZINC000882897665]	0.38	–	–
CN(Cc1nnc2c(=O)[nH]ccn12)c1cc(Cl)nc(C2CC2)n1 [ZINC000882897766]	−0.19	–	–
CC1C(=O)CCCN1C(=O)c1ccnc2[nH]cnc12 (stereo not drawn) [ZINC000885048835]	0.23	0.16 ˚C	–

SMILES	Spearman est (compound concentration vs apparent Tm) [2]	DSF max dTma [2]	other results
CNc1cc(N2CCCC(c3nc(C)no3)C2)ncn1 (stereo not drawn) [ZINC000891943247]	0.24	0.27 ˚C	–
Cc1ccccc1CC(C)c1nc(-c2cc(N)ncn2)no1 (stereo not drawn) [ZINC000896334066]	0.77	–	–
c1csc(CC2CCN(c3ncnc4[nH]ccc34)C2)n1 (stereo not drawn) [ZINC000897286891]	−0.05	–	–
CNc1cc(-c2noc(CN3CCCC3=O)n2)ncn1 [ZINC000904236028]	−0.56	–	–
Cc1nc(Cc2noc(-c3ncnc4[nH]ccc34)n2)no1 [ZINC000904346960]	0.21	0.27 ˚C	–
CC(c1ccc(Cl)c(Cl)c1)S(=O)(=O)Cc1cn[nH]c1 (stereo not drawn) [ZINC000905245728]	−0.2	–	–
CN(C(=O)CN1CCNC(=O)C1)c1ccc(-c2nccs2)cc1 [ZINC000910053700]	−0.73	–	–
Cc1nc2c(C(=O)OCc3ccnc(N(C)C)c3)ccnc2[nH]1 [ZINC000924094620]	0.62	–	–
Cn1cnc(C(=O)NCC2CCN2C(=O)c2ncnc3[nH]ccc23)c1 (stereo not drawn) [ZINC000949397098]	0.3	0.1 ˚C	–
CN1C(=O)[C@H]2CN(C(=O)c3ncnc4[nH]ccc34)C[C@H]2C1=O [ZINC001119059028]	−0.58	0 ˚C	–
Nc1nc(N)c2ncn(C3CN(C(=O)Cc4cccnc4)C3)c2n1 [ZINC001156036512]	0.06	0.61 ˚C	–
NC(=O)c1ccc(CCSc2cccc(F)c2)cc1 [ZINC001165768885]	−0.73	–	–
Cc1ccccc1CNc1ncnc(-c2ccccc2)n1 [ZINC001184571635]	0.82	–	–
Clc1cc2c(N3CCCC(c4nnc[nH]4)C3)ncnc2[nH]1 (stereo not drawn) [ZINC001187497156]	0.32	–	–
CNS(=O)(=O)c1cccc(-c2ncnc3[nH]c4ccccc4c23)c1 [ZINC001240776402]	−0.29	0.27 ˚C	–
O=C1CCCN1Cc1cccc(N2C(=O)N[C@@H](CO)C2=O)c1 [ZINC001320848619]	0.18	0.2 ˚C	–
O=C(c1ncnc2[nH]ccc12)N1CC(n2cncn2)C1 [ZINC001327823432]	0.54	0.66 ˚C	–
O=C(c1ncnc2[nH]ccc12)N1CC(n2ccnn2)C1 [ZINC001335091110]	−0.36	0.04 ˚C	–
CN(Cc1ncc(Cl)n1C)c1ncnc(N)n1 [ZINC001337833291]	0.82	–	–
CN(Cc1nnc2c(=O)[nH]ccn12)C(=O)COC1CC1 [ZINC001364630288]	0.73	–	–
Nc1ncc(S(=O)(=O)N2CCC2c2cccc(F)c2)cn1 (stereo not drawn) [ZINC001365141527]	−0.66	0 ˚C	–
CC(C(=O)N1CC(C(N)=O)C1)n1cnc2c(N)ncnc21 (stereo not drawn) [ZINC001434309614]	0.08	0.26 ˚C	–
O=c1[nH]ccn2c(CSc3nc4ccccc4s3)nnc12 [ZINC001458791015]	0.66	–	–
O=c1[nH]nc(C2CCCN(c3ncnc4[nH]c(Cl)cc34)C2)o1 (stereo not drawn) [ZINC001559178387]	−0.22	–	–
Nc1ncnc(SCCc2cccc(Cl)c2Cl)n1 [ZINC001641481086]	0.6	–	–
Cc1cc(C)nc(CSc2nnc3c(=O)[nH]c4ccccc4n23)c1 [ZINC001652467570]	0.44	–	–

Reference: article PMC9926234, “Iterative computational design and crystallographic screening identifies potent inhibitors targeting the Nsp3 macrodomain of SARS-CoV-2” (Proceedings of the National Academy of Sciences of the …, 2023)
